Laboratory results reported in paper PMC10897476, “Pyridylpiperazine efflux pump inhibitor boosts in vivo antibiotic efficacy against K. pneumoniae” (EMBO Molecular Medicine, 2023).
Marks after values point to notes of the source that are not given here.

Assays:
Format in all cases: cell-based, Klebsiella pneumoniae
[1] = system: K. pneumoniae ATCC 43816 (WT); test: MIC of antibiotics with and without EPI (REMA), WT strain; conditions: for Minimum Inhibitory Concentration / MIC: K. pneumoniae WT; for MIC: Klebsiella pneumoniae, ATCC43816, No EPI, read-out: Minimum Inhibitory Concentration
Method: Overnight cultures were diluted to an OD600 = 0.001 in CAMHB followed by addition of efflux pump inhibitors (EPIs) at a final concentration of 100 µM. […] Plates were incubated at 37 °C for up to 20 h. […] MICs were defined as the concentration that prevented 90% of resazurin turnover compared to the non-treated bacteria.

[2] = system: K. pneumoniae AcrB^V448E; test: MIC of antibiotics with and without EPI (REMA), AcrB V448E mutant; conditions: for Minimum Inhibitory Concentration: K. pneumoniae AcrB^V448E; for MIC: Klebsiella pneumoniae, read-out: Minimum Inhibitory Concentration
Method: (§1) MIC experiments were carried out according to the CLSI guidelines (CLSI [2023]). Overnight cultures were diluted to an OD600 = 0.001 in CAMHB followed by addition of efflux pump inhibitors (EPIs) at a final concentration of 100 µM. […] Plates were incubated at 37 °C for up to 20 h. Bacterial viability was evaluated using the resazurin microtitre assay (REMA) and measured by fluorescence using a Tecan Spaert multimode plate reader (Ex: 530 nm Em: 590 nm). MICs were defined as the concentration that prevented 90% of resazurin turnover compared to the non-treated bacteria.
(§2) Mutations in acrB or ramR identified in the BDM88855.HCl (1’) resistant mutant (a.k.a., KPJC11) were introduced individually into K. pneumoniae ATCC 43816 chromosome by allelic exchange (Cianfanelli et al, [2020]). Briefly, 1-kb PCR products centred around each point mutation were generated by amplifying acrB with primers RH1251 ([…][…]) and RH1252 ([…][…]) or ramR with primers RH1249 ([…][…]) and RH1250 ([…][…]) from KPJC11 genomic DNA. PCR fragments were cloned into pFOK (Cianfanelli et al, [2020]) using NEB-building kit ([New England Biolabs]) to generate pEP1533 and pEP1534. Correct plasmids were confirmed by sequencing and introduced into K. pneumoniae ATCC43816 WT via conjugation with the MFDpir+ E. coli donor strain. Exconjugants were selected on kanamycin (50 mg/L) plates at 37 °C and plasmid chromosomal integration was checked by PCR. […] The next day, cultures were diluted and plated onto LB agar. Isolated colonies were then patched onto LB plates with or without kanamycin (50 mg/L) and Km^S candidates were evaluated for correct allelic exchange via acrB or ramR sequencing and then WGS to confirm no additional mutations were introduced.

[3] = system: K. pneumoniae RamR^mut (K124*stop); test: MIC of antibiotics with and without EPI (REMA), RamR mutant; conditions: for Minimum Inhibitory Concentration: K. pneumoniae RamR^mut; for MIC: Klebsiella pneumoniae, read-out: Minimum Inhibitory Concentration
Method: as §1, §2

[4] = system: K. pneumoniae AcrB^V448E RamR^mut; test: MIC of antibiotics with and without EPI (REMA), double mutant; conditions: for Minimum Inhibitory Concentration: K. pneumoniae AcrB^V448E RamR^mut; for MIC: Klebsiella pneumoniae, read-out: Minimum Inhibitory Concentration
Method: as §1

SMILES | Minimum Inhibitory Concentration ([1]; + 100 µM 1') | Minimum Inhibitory Concentration ([1]; + 100 µM 5) | Minimum Inhibitory Concentration ([1]; + 100 µM PAβN) | MIC [1] | boosting of antibiotic activity in combination with EPIs ([1]; Table 2) | Minimum Inhibitory Concentration ([2]; + 100 µM 1') | Minimum Inhibitory Concentration ([2]; + 100 µM 5) | Minimum Inhibitory Concentration ([2]; + 100 µM PAβN) | MIC [2] | Minimum Inhibitory Concentration ([3]; + 100 µM 1') | Minimum Inhibitory Concentration ([3]; + 100 µM 5) | Minimum Inhibitory Concentration ([3]; + 100 µM PAβN) | MIC [3] | Minimum Inhibitory Concentration ([4]; + 100 µM 1') | Minimum Inhibitory Concentration ([4]; + 100 µM 5) | Minimum Inhibitory Concentration ([4]; + 100 µM PAβN) | MIC [4] | Minimum Inhibitory Concentration ([4]; No EPI) | Minimum Inhibitory Concentration ([2]; No EPI) | Minimum Inhibitory Concentration ([3]; No EPI)
CC[C@H]1OC(=O)[C@H](C)[C@@H](O[C@H]2C[C@@](C)(OC)[C@@H](O)[C@H](C)O2)[C@H](C)[C@@H](O[C@@H]2O[C@H](C)C[C@H](N(C)C)[C@H]2O)[C@](C)(O)C[C@@H](C)CN(C)[C@H](C)[C@@H](O)[C@]1(C)O [Azithromycin] | 2.7^# mg/L | 2.0^# mg/L | 0.5^# mg/L | 16 µg/mL | at least 8 fold | 6.7^# mg/L | 11^# mg/L | 0.5^# mg/L | 21 µg/mL | 11^# mg/L | 3.3^# mg/L | 0.7^# mg/L | 37 µg/mL | 37 mg/L | 21 mg/L | 0.7^# mg/L | 21 µg/mL | – | – | –
C[C@H]1[C@H](NC(=O)/C(=N\OC(C)(C)C(=O)O)c2csc(N)n2)C(=O)N1S(=O)(=O)O [Aztreonam] | 0.11 mg/L | 0.11 mg/L | 0.16 mg/L | 0.07 µg/mL | – | 0.16 mg/L | 0.21 mg/L | 0.32 mg/L | 0.13 µg/mL | 0.32 mg/L | 0.27 mg/L | 0.53 mg/L | 0.43 µg/mL | 0.53 mg/L | 0.75 mg/L | 0.53 mg/L | 0.53 µg/mL | – | – | –
CO/N=C(\C(=O)N[C@@H]1C(=O)N2C(C(=O)[O-])=C(C[N+]3(C)CCCC3)CS[C@H]12)c1csc(N)n1 [Cefepime] | 0.05 mg/L | 0.05 mg/L | 0.21 mg/L | 0.09 µg/mL | – | 0.05 mg/L | 0.04 mg/L | 0.64 mg/L | 0.06 µg/mL | 0.64 mg/L | 0.11^# mg/L | 0.64 mg/L | 0.53 µg/mL | 0.85 mg/L | 0.96 mg/L | 0.85 mg/L | 0.75 µg/mL | – | – | –
CC(C)(O/N=C(\C(=O)N[C@@H]1C(=O)N2C(C(=O)[O-])=C(C[n+]3ccccc3)CS[C@H]12)c1csc(N)n1)C(=O)O [Ceftazidime] | 0.32 mg/L | 0.53 mg/L | 0.32 mg/L | 0.43 µg/mL | – | 0.37^# mg/L | 0.32^# mg/L | 0.53 mg/L | 0.85 µg/mL | 1.1 mg/L | 0.64^# mg/L | 0.64^# mg/L | 1.3 µg/mL | 1.28 mg/L | 1.28 mg/L | 1.28 mg/L | – | 1.28 mg/L | – | –
O=C(N[C@H](CO)[C@H](O)c1ccc([N+](=O)[O-])cc1)C(Cl)Cl [Chloramphenicol] | 1.0^# mg/L | 1.0^# mg/L | 1.7^# mg/L | 4 µg/mL | – | 2.0^# mg/L | 4.7 mg/L | 2.0^# mg/L | 6.7 µg/mL | 2.7^# mg/L | 4.7^# mg/L | 2.7^# mg/L | 53 µg/mL | 128 mg/L | 128 mg/L | 5.3^# mg/L | – | 128 mg/L | – | –
CC(=O)O[C@H]1C[C@@]2(C)[C@@H](C[C@@H](O)[C@H]3[C@@]4(C)CC[C@@H](O)[C@@H](C)[C@@H]4CC[C@@]32C)/C1=C(\CCC=C(C)C)C(=O)O [Fusidic acid] | 85 mg/L | 128 mg/L | 21^# mg/L | 128 µg/mL | – | 128 mg/L | 128 mg/L | 32^# mg/L | – | 128 mg/L | 128 mg/L | 85 mg/L | – | 128 mg/L | 128 mg/L | 107 mg/L | – | 128 mg/L | 128 mg/L | 128 mg/L
CC(=O)NC[C@H]1CN(c2ccc(N3CCOCC3)c(F)c2)C(=O)O1 [Linezolid] | 13^# mg/L | 27^# mg/L | 64^# mg/L | 128 µg/mL | – | 85 mg/L | 128 mg/L | 64^# mg/L | – | 128 mg/L | 107 mg/L | 128 mg/L | – | 128 mg/L | 128 mg/L | 128 mg/L | – | 128 mg/L | 128 mg/L | 128 mg/L
Cc1onc(-c2ccccc2)c1C(=O)N[C@@H]1C(=O)N2[C@@H]1SC(C)(C)[C@@H]2C(=O)O [Oxacillin] | 32^# mg/L | 43^# mg/L | – | – | – | – | – | – | – | – | – | – | – | – | – | – | – | – | – | –
